In patent publication US20250381216A1, “PROPHYLACTIC DRUG AND THERAPEUTIC DRUG FOR DIABETES-ASSOCIATED DEMENTIA” (priority 2022, published 2025):

Experiments:
[1] = test system: diabetes-associated dementia model (STZ injected into the cerebral ventricles of mice); test: Morris water maze probe test (spatial memory) in mice given streptozotocin intracerebroventricularly; assay type: in vivo, C57BL/6 mice; settings: for Residence time in the quadrant where the platform was previously located: mean ± SE
Source text: (§1) Male C57BL/6 mice (20-22 g), 6 weeks old, were purchased from Japan SLC, Inc., and acclimated for one week. All mice (3-5 mice per cage) were maintained under specific pathogen-free conditions with a 12-hour light/dark cycle in a temperature and humidity-controlled room, with free access to food and water. Mouse diet (D12450B) was purchased from Research Diets, Inc. After the experiment, mice were anesthetized with 4% isoflurane vapor using a simple inhalation anesthesia device (NARCOBIT-E, Natsume Seisakusho Co., Ltd.) and euthanized by cardiac puncture for whole blood collection.
(§2) LPS (Pantoea agglomerans LPS mac0001, Macrophi Inc.), prepared and purified according to the fermentation culture method (PTL 2) developed by Soma et al., was used. LPS was administered orally by dissolving LPS in drinking water (sterilized distilled water) at a dose of 1 mg/kg body weight/day. The LPS dosage was based on previous studies (NPL 8, 9). Drinking water was replaced weekly, and LPS concentration was adjusted according to average body weight and water intake. The LPS used is a substance present in the environment, consumed to some extent in daily life, and has also been added to food and cosmetics. LPS, when orally fed, enhances the functionality of phagocytes (macrophages) in the peritoneal cavity and brain (NPL 8, 9). Activated phagocytes have the function of repairing damaged tissues in the body. LPS may be derived from plant symbiotic bacteria with food experience, such as Pantoea, Enterobacter, Xanthomonas, Acetobacteraceae, and Zymomonas, but the specific strain is not limited as long as it is LPS.
We used a method of directly administering STZ into the cerebral ventricles as a model of the diabetes-associated dementia that causes spatial memory deterioration without increasing blood glucose levels (NPL 7). STZ was purchased from Sigma-Aldrich Co. LLC. […] After surgery, mice were monitored daily for pain/discomfort and infection according to guidelines. […]

[2] = test system: diabetes-associated dementia model (STZ injected into the cerebral ventricles of mice); test: Morris water maze training test (spatial learning) in mice given streptozotocin intracerebroventricularly; assay type: in vivo, C57BL/6 mice
Source text: as §1, §2
We used a method of directly administering STZ into the cerebral ventricles as a model of the diabetes-associated dementia that causes spatial memory deterioration without increasing blood glucose levels (NPL 7). STZ was purchased from Sigma-Aldrich Co. LLC. After anesthetizing with 4% isoflurane using a stereotaxic apparatus SR-5M-HT (Narishige Co., Ltd.), STZ (2.0 mg/mouse, dissolved in 5 μl saline) was injected singly into the right lateral ventricle using a microinjector IMS-20 and micromanipulator SMM-100 (Narishige Co., Ltd.). The stereotaxic coordinates were +0.3 mm anterior, +1.0 mm lateral (right), and +2.5 mm ventral from the intersection of the sagittal and coronal sutures. After suturing the skin, an appropriate amount of antibiotic ointment (20 mg/g chloramphenicol, 5 mg/g fradiomycin, 100,000 U/g nystatin, Daiichi Sankyo Healthcare Co., Ltd.) was applied to the wound. For non-STZ control mice, 5 μl of saline was injected into the right lateral ventricle. After surgery, mice were monitored daily for pain/discomfort and infection according to guidelines. 5 μL of 5% trypan blue (Nacalai Tesque, Inc.) was administered intracerebroventricularly to confirm proper needle placement.
For the prevention experiment of LPS oral administration against the diabetes-associated dementia, mice were given free access to LPS in drinking water (1 mg/kg body weight/day for 33 days until the end of the test) from one week before STZ administration until the end of the experiment. Cognitive assessment tests (Morris water maze test) were conducted 3 weeks after STZ administration (4 weeks after starting LPS oral intake). 17-19 mice were used for each group.
For the treatment experiment of LPS oral administration against the diabetes-associated dementia, cognitive assessment tests (Morris water maze test) were conducted 12 days after STZ administration to confirm cognitive function decline. From 20 days after STZ administration, mice were given free access to LPS in drinking water (1 mg/kg body weight/day for 25 days until the end of the test). Cognitive assessment tests (Morris water maze test) were conducted 40 days after STZ administration (day 20 of LPS oral intake).
The Morris water maze test consists of tests evaluating spatial learning ability (training test) and spatial memory ability (probe test). […]

[3] = training test starting 12 days after icv STZ 2.0 mg/mouse, before LPS treatment, mean ± SE
[4] = treatment experiment, training test starting 40 days after icv STZ, LPS 1 mg/kg body weight/day in drinking water from day 20 after STZ

CN(N=O)C(=O)N[C@H]1C(O)O[C@H](CO)[C@@H](O)[C@@H]1O (mixture of isomers) [STZ, streptozotocin]
Spatial memory ability (residence time in the target quadrant, FIG. 2) ([1]; prevention experiment, LPS 1 mg/kg body weight/day in drinking water from one week before icv STZ, probe test the day after training): significantly shorter residence time in the target quadrant compared to the Saline group | Residence time in the quadrant where the platform was previously located ([1]; probe test 16 days after icv STZ 2.0 mg/mouse, before LPS treatment, 60-second test): 18.0 ± 2.83 s | Residence time in the quadrant where the platform was previously located ([1]; treatment experiment, probe test 44 days after icv STZ, LPS 1 mg/kg body weight/day in drinking water from day 20 after STZ): 24.1 ± 8.73 s | Spatial learning ability (platform travel time over 4 days of training, FIG. 1) ([2]; prevention experiment, LPS 1 mg/kg body weight/day in drinking water from one week before icv STZ, test three weeks after STZ): inhibited reduction in platform travel time compared to the Saline group | Travel time (time required to reach the platform), training day 1 [2, 3]: 55.1 ± 2.14 s | Travel time (time required to reach the platform), training day 2 [2, 3]: 43.8 ± 7.00 s | Travel time (time required to reach the platform), training day 3 [2, 3]: 40.4 ± 7.09 s | Travel time (time required to reach the platform), training day 4 [2, 3]: 33.3 ± 6.74 s | Travel time (time required to reach the platform), training day 1 [2, 4]: 44.42 ± 3.81 s | Travel time (time required to reach the platform), training day 2 [2, 4]: 37.25 ± 10.41 s | Travel time (time required to reach the platform), training day 3 [2, 4]: 27.83 ± 7.71 s | Travel time (time required to reach the platform), training day 4 [2, 4]: 35.75 ± 10.44 s
